From PMC6556873, “Rapid Covalent-Probe Discovery by Electrophile-Fragment Screening” (Journal of the American Chemical Society, 2019)
Where two headings read alike, the source gives them in different places.

What was measured:
[1] = in vitro; set-up: species or system CCD841, HEK293; settings: human, hb2 cells, read-out: HB-2 Cells Viability (%)
[2] = in vitro; set-up: species or system HB2, CCD841; settings: human, hek293 cells
[3] = in vitro; set-up: species or system HB2, HEK293; settings: human, ccd841 cells
[4] = biological target: T1, PCAF (Homo sapiens, UniProt Q92831); set-up: Intact protein LC/MS covalent labelling, fragments in pools of five, 200 uM each, 4 °C; settings: 24 h, 4 °C, pool of five; 200 µM; covalent
T1 construct: gene KAT2B
Experimental: (§1) Incubations were performed at 200 μM for each compound and 2 μM of protein (10 μM for BSA) for 24 h at 4 °C with moderate shaking. Incubation buffers varied among proteins (PBS pH 7.4 for QSOX1 and BSA; 10 mM HEPES pH 7.5, 0.3 M NaCl, 0.5 mM TCEP for PCAF, UPS8, and NUDT7; […]; 10 mM Na2HPO4 pH 7.5 100 mM NaCl 5 mM β-mercaptoethanol for NV3CP; 20 mM Na phosphate pH 7.5 for NNMT; […]. The reaction was stopped by quenching with formic acid, 0.4% final concentration. Each protein was incubated with the electrophilic library in pools of five compounds per well. The pool’s composition maximized the difference in mass between fragments in the same well. Incubations were performed with each fragment at 200 μM, for 24 h at 4 °C, to allow the screening of proteins that are not stable for long time periods at higher temperatures. Following incubation, we used intact protein [compound left out] chromatography/mass spectrometry (LC/MS) to identify the fragments and quantify their labeling (Figure 3A). […] There was good agreement between the percent of labeling of NUDT7 by 100 random individual compounds and that obtained in pools of five (R^2=0.78; Figure S6 and Data set 2 in the Supporting Information).

[5] = biological target: T2, OTUB2 (OTUB2A) (Homo sapiens, UniProt Q96DC9); set-up: Intact protein LC/MS covalent labelling, fragments in pools of five, 200 uM each, 4 °C; settings: 24 h, 4 °C, pool of five; 200 µM; covalent
T2 construct: full length residues 1-234, E. coli BL21(DE3)-R3, His tag removed by TEV, construct 27312 Da
T2 sequence (Q96DC9 1-234): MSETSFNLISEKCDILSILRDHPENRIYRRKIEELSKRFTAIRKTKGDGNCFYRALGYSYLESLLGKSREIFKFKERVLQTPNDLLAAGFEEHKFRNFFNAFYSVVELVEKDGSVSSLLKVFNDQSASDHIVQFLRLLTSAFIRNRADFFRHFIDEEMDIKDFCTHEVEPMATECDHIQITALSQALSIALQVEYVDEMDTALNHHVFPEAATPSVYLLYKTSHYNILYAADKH
Experimental: as §1

[6] = biological target: T3, BSA (Bos taurus, UniProt P02769); set-up: Intact protein LC/MS covalent labelling, fragments in pools of five, 200 uM each, 4 °C; settings: 24 h, 4 °C, pool of five; 200 µM; covalent
T3 construct: gene ALB
Experimental: as §1

[7] = biological target: T4, NUDT7 (Homo sapiens, UniProt P0C024); set-up: Intact protein LC/MS covalent labelling, fragments in pools of five, 200 uM each, 4 °C; settings: 24 h, 4 °C, pool of five; 200 µM; covalent
T4 construct: residues 14-235, E. coli, pNIC28-Bsa4, N-terminal His6 tag removed by TEV, construct 26672 Da
Experimental: as §1

T3 sequence (P02769 whole entry, the tested form may be a part): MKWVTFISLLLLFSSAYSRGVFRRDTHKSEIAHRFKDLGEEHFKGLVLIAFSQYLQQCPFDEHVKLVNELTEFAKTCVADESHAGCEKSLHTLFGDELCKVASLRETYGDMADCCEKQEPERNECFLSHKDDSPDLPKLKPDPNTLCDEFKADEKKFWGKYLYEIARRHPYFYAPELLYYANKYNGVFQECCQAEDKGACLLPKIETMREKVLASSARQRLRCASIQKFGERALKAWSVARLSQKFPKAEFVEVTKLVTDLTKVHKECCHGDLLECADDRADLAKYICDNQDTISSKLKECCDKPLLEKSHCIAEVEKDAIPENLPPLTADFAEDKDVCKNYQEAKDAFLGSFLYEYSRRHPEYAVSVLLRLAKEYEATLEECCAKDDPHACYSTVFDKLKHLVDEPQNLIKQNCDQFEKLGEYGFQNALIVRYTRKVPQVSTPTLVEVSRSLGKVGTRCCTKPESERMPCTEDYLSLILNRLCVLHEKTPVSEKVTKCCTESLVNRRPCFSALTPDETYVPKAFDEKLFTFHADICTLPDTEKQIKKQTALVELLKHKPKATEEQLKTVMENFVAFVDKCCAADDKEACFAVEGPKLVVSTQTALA
T1 sequence (Q92831 whole entry, the tested form may be a part): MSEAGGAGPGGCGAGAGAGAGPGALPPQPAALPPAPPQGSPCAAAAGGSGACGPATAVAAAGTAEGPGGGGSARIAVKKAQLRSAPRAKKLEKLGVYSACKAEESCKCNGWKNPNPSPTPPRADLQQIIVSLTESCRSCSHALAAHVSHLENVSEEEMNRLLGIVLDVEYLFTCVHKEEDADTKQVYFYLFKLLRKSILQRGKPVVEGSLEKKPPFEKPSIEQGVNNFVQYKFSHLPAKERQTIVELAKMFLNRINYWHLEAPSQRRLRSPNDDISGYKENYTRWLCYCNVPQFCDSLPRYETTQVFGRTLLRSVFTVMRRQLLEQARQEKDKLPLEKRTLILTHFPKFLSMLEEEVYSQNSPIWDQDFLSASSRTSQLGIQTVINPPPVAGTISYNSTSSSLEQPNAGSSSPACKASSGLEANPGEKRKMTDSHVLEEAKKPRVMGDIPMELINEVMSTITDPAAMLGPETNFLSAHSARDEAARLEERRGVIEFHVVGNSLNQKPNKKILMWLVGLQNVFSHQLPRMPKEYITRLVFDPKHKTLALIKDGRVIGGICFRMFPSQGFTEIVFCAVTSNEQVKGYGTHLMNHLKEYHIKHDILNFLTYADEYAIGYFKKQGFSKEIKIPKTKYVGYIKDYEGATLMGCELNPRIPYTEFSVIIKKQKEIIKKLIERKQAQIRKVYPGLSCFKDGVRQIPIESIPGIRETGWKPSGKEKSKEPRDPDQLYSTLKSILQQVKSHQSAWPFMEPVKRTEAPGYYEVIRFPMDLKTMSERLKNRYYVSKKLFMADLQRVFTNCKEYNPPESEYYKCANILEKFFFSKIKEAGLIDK
T4 sequence (P0C024 14-235): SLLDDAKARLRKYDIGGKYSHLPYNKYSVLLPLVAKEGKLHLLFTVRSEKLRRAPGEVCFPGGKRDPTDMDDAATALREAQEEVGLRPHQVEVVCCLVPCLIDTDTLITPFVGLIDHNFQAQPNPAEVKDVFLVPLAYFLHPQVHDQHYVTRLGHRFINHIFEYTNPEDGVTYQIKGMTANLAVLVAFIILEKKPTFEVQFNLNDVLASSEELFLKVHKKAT

Row | SMILES | viability at 48 h, 10 µM [1] [%] | viability at 48 h, 10 µM [2] [%] | viability at 48 h, 10 µM [3] [%] | PCAF [4] | OTUB2 [5] | BSA [6] | NUDT7 [7]
1 | Cc1nc(NC(=O)CCl)sc1C [PCM-0102124] | 47.2 | 32.2 | 66.1 | 0 | 0 | 0 | 
2 | O=C(CCl)N1N=C(c2ccco2)CC1c1cccs1 (centres unmarked) [PCM-0102182] | 14.9 | 2 | 18.2 | 0 | 0 | 0 | 
3 | O=C(CCl)Nc1nncs1 [PCM-0102427] | 89.6 | 99.2 | 91 | 0 | 0 | 0 | 
4 | O=C(CCl)N1CCC2CCCCC2C1 (centres unmarked) [PCM-0102474] | 24.3 | 15.3 | 54.4 | 0 | 0 | 0 | 
5 | O=C(CCl)N1CCc2[nH]c3ccccc3c2C1 [PCM-0102591] | 7.3 | 7.5 | 61.8 | 0 |  | 0 | 0.22
6 | C=CC(=O)NC1(c2nc(C)cs2)CCOCC1 [PCM-0102601] | 103 | 109 | 102 | 0 |  | 0 | 0
7 | C=CC(=O)N1CCCC(c2nc(C(F)(F)F)cn2C)C1 (centres unmarked) [PCM-0102633] | 99.9 | 106 | 118 | 0 |  | 0 | 0
8 | C=CC(=O)NC1CCN(C(C)=O)Cc2cc(F)ccc21 (centres unmarked) [PCM-0102635] | 101 | 91.8 | 114 | 0 |  | 0 | 0
9 | C=CC(=O)N1CCn2c(cc3cc(Cl)ccc32)C1 [PCM-0102661] | 81.5 | 87.1 | 109 | 0 |  | 0.18 | 0
10 | O=C(CCl)NCc1ccc(Cl)cc1 [PCM-0102668] | 108 | 83.7 | 112 | 0 |  | 0 | 0
11 | C=CC(=O)NC(C)(C)c1noc(C(C)(C)C)n1 [PCM-0102724] | 95.8 | 113 | 108 | 0 |  | 0 | 0
12 | Cc1cc(NC(=O)CCl)ccc1Br [PCM-0102770] | 2.5 | 1.6 | 15.6 | 0 |  | 0 | 0.21
13 | O=C(CCl)Nc1ccc2c(c1)OC1(CCCC1)O2 [PCM-0102801] | 8.5 | 2.8 | 59.7 | 0 |  | 0 | 0.1
14 | C=CC(=O)N1CCn2c(cc3c(Cl)cccc32)C1 [PCM-0102835] | 83.4 | 69.7 | 91.6 | 0 |  | 0 | 0
15 | C=CC(=O)N=C1N=C2C=CC(I)=CN2Cc2ccccc21 [PCM-0102846] | 92.6 | 76.9 | 87.7 | 0 | 0 |  | 
16 | CN(C)c1ccc(NC(=O)CCl)cc1.Cl [PCM-0102859] | 105 | 87 | 110 | 0 |  | 0.22 | 0
17 | O=C(CCl)NC1CCC(C(F)(F)F)CC1 (centres unmarked) [PCM-0102864] | 99.2 | 82.7 | 109 | 0 |  | 0 | 0
18 | C=CC(=O)Nc1ccc(C)c(F)c1 [PCM-0102878] | 102 | 78.8 | 97.9 | 0 |  | 0 | 0
19 | O=C(CCl)Nc1ccccc1O [PCM-0102907] | 106 | 80.8 | 95.4 | 0 |  | 0 | 0.36
20 | Cc1ccc(C(=O)NNC(=O)CCl)cc1 [PCM-0102924] | 97.6 | 268 | 123 | 0 |  | 0 | 0
21 | CC(=O)NC1CCCN(C(=O)CCl)C1 (centres unmarked) [PCM-0102934] | 100 | 81.8 | 90 | 0 |  | 0 | 0
22 | O=C(CCl)Nc1nc(-c2ccco2)cs1 [PCM-0102979] | 44 | 66 | 89.7 | 0 |  | 0 | 0.25
23 | CC(NC(=O)CCl)C(=O)O (centres unmarked) [PCM-0102990] | 102 | 103 | 115 | 0 |  | 0 | 0
24 | Cc1ccc(NC(=O)CCl)c(C)c1 [PCM-0103041] | 75.7 | 49.9 | 70.5 | 0 |  | 0 | 0
25 | C=CC(=O)NC1(C#N)CCOC1 (centres unmarked) [PCM-0103049] | 99.3 | 115 | 95.7 | 0 |  | 0 | 0
